Columns and labels:
[1] = biological target: Sodium-dependent noradrenaline transporter (Homo sapiens, UniProt P23975); assay: Inhibition of norepinephrine uptake at human NET expressed in HEK293 cells; type: cell-based
[2] = biological target: Sodium-dependent serotonin transporter (Homo sapiens, UniProt P31645)
Description: Inhibition of serotonin uptake at human SERT expressed in HEK293 cells

[3] = biological target: Sodium-dependent dopamine transporter (Homo sapiens, UniProt Q01959); assay: Inhibition of dopamine uptake at human DAT expressed in HEK293 cells; type: cell-based
[4] = Metabolic stability in rat liver microsomes assessed as systemic clearance; type: ADME, Microsome
[5] = Metabolic stability in human liver microsomes assessed as systemic clearance; type: ADME, Microsome
[6] = Apparent permeability across human Caco-2 cells; type: ADME, cell-based
[7] = Drug level in rat brain at 30 mg/kg, po at 1 hr; type: ADME, organism-based; set-up: dose 30 mg/kg, route oral; settings: read-out: Drug uptake
[8] = Dissociation constant, pKa of the compound; type: physicochemical
[9] = Distribution coefficient, log D of the compound; type: physicochemical; settings: octanol/water
[10] = Lipophilicity, log P of the compound; type: physicochemical; settings: octanol/water
[11] = Ratio of drug level in brain to plasma in rat at 30 mg/kg, po after 4 hrs; type: ADME, organism-based; set-up: dose 30 mg/kg, route oral
[12] = Cmax in rat at 30 mg/kg, po; type: ADME, organism-based; set-up: dose 30 mg/kg, route oral; settings: in vivo
[13] = AUC in rat at 30 mg/kg, po; type: ADME, organism-based; set-up: dose 30 mg/kg, route oral; settings: plasma
[14] = Drug level in rat brain at 30 mg/kg, po at 4 hrs; type: ADME, organism-based; set-up: dose 30 mg/kg, route oral; settings: read-out: Drug uptake
[15] = Tmax in rat at 30 mg/kg, po; type: ADME, organism-based; set-up: dose 30 mg/kg, route oral; settings: in vivo
[16] = Ratio of drug level in brain to plasma in rat at 30 mg/kg, po after 1 hr; type: ADME, organism-based; set-up: dose 30 mg/kg, route oral
[17] = Cmax in rat at 10 mg/kg, po; type: ADME, organism-based; set-up: dose 10 mg/kg, route oral; settings: in vivo
[18] = Ratio of drug level in brain to plasma in rat at 10 mg/kg, po after 1 hr
[19] = AUC in rat at 10 mg/kg, po; type: ADME, organism-based; set-up: dose 10 mg/kg, route oral; settings: plasma
[20] = Ratio of drug level in brain to plasma in rat at 10 mg/kg, po after 4 hrs
[21] = Tmax in rat at 10 mg/kg, po; type: ADME, organism-based; set-up: dose 10 mg/kg, route oral; settings: in vivo
[22] = Drug level in rat brain at 10 mg/kg, po at 4 hrs; type: ADME, organism-based; set-up: dose 10 mg/kg, route oral; settings: read-out: Drug uptake
[23] = Drug level in rat brain at 10 mg/kg, po at 1 hr; type: ADME, organism-based; set-up: dose 10 mg/kg, route oral; settings: read-out: Drug uptake

Sodium-dependent noradrenaline transporter, sequence (P23975 whole entry): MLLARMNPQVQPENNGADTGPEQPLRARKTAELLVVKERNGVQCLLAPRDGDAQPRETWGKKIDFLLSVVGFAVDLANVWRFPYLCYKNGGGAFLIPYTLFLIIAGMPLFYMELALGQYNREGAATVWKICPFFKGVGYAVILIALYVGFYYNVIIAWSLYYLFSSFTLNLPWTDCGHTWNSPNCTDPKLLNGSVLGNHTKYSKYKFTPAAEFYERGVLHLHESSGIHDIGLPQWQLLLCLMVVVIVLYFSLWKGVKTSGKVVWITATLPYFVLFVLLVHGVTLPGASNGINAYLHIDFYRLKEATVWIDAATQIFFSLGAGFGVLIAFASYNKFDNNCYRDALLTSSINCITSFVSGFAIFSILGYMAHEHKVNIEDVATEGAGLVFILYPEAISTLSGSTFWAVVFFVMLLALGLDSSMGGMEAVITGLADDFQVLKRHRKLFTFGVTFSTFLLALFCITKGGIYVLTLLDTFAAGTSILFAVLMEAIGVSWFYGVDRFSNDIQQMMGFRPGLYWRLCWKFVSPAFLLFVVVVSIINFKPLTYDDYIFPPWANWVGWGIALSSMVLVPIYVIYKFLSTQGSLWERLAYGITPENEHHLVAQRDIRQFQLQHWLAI
Sodium-dependent serotonin transporter, sequence (P31645 whole entry): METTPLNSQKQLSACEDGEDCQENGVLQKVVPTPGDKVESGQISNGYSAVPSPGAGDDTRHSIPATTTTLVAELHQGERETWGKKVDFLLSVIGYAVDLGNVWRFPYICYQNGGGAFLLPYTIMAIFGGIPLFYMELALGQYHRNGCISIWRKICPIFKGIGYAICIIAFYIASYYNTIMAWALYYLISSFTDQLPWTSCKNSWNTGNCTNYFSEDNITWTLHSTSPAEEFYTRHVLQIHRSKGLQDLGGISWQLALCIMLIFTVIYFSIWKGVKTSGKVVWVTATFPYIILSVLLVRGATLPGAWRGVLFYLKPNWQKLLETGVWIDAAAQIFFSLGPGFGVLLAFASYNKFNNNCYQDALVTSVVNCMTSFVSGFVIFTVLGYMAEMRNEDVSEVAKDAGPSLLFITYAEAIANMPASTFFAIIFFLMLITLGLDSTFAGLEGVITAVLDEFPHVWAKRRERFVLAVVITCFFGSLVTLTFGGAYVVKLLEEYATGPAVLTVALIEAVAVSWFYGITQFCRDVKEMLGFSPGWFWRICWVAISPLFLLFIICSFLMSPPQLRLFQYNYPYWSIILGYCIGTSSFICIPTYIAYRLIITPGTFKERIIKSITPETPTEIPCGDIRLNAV
Sodium-dependent dopamine transporter, sequence (Q01959 whole entry): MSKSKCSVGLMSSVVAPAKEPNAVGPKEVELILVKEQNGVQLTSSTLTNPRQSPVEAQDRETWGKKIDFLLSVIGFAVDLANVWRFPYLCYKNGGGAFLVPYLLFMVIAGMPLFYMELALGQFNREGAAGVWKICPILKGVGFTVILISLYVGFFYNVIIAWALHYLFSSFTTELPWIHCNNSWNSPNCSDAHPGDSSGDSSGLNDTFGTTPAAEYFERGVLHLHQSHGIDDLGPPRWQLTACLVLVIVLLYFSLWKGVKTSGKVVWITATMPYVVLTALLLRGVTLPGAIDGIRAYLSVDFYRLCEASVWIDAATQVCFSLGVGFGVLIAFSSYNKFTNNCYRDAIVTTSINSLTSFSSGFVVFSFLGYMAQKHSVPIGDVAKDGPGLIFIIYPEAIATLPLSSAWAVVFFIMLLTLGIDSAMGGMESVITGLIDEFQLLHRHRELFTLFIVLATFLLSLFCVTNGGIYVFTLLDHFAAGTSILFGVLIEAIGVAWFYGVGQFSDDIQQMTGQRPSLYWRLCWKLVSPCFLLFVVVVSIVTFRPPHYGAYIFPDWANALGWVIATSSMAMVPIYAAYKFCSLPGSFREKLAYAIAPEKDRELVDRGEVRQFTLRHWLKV

Structure (SMILES) | IC50 [1] | IC50 [2] | IC50 [3] | CLhep predicted [4] | CLhep predicted [5] | Papp [6] | further results
NC[C@@H]1C[C@@]1(C(=O)N1CCCc2ccccc21)c1ccsc1 | 20 nM | 420 nM | > 10000 nM | – | – | – | –
COCCN(C)C(=O)[C@@]1(c2ccsc2)C[C@H]1CN | 1100 nM | 590 nM | > 10000 nM | – | – | – | –
C#CCN(CC=C)C(=O)[C@@]1(c2ccsc2)C[C@H]1CN | 2.8 nM | 71 nM | > 10000 nM | 44 mL/min/kg | < 2.6 mL/min/kg | 9.6 ×10⁻⁶ cm/s | –
C=CCN(CC=C)C(=O)[C@@]1(c2ccsc2)C[C@H]1CN | 2.7 nM | 76 nM | 8300 nM | 59 mL/min/kg | 4.7 mL/min/kg | 9.5 ×10⁻⁶ cm/s | –
CCN(CC)C(=O)[C@@]1(c2cc3cc(F)ccc3s2)C[C@H]1CN | 150 nM | 290 nM | > 10000 nM | – | – | – | –
C=CCN(CC)C(=O)[C@@]1(c2ccsc2)C[C@H]1CN | 5.6 nM | 140 nM | > 10000 nM | 57 mL/min/kg | 6.8 mL/min/kg | 6.4 ×10⁻⁶ cm/s | concentration at 1 h [7]: 39 ng/g; pKa [8]: 9.5; logD [9]: 0.1; logP [10]: 1.5; Kp at 4 h [11]: 0.4; Cmax [12]: 201 ng/mL; AUC [13]: 502 ng·h/mL; concentration at 4 h [14]: 15 ng/g; Tmax [15]: 30 min; Kp at 1 h [16]: 0.3
C=CCN(C)C(=O)[C@@]1(c2ccsc2)C[C@H]1CN | 100 nM | 60 nM | > 10000 nM | – | – | – | –
CCN(CC)C(=O)[C@@]1(c2ccc(Br)s2)C[C@H]1CN | 29 nM | 350 nM | 6300 nM | – | – | – | –
CCN(CC)C(=O)[C@@]1(c2cccs2)C[C@H]1CN | 76 nM | 520 nM | > 10000 nM | – | – | – | –
CCN(CC)C(=O)[C@]1(c2ccccc2)C[C@@H]1CN | – | – | – | 18 mL/min/kg | < 2.6 mL/min/kg | – | –
CCN(CC)C(=O)[C@@]1(c2cc(Cl)c(Cl)s2)C[C@H]1CN | 560 nM | 2200 nM | > 10000 nM | – | – | – | –
CCN(CC)C(=O)[C@@]1(c2cccnc2)C[C@H]1CN | 1500 nM | 4000 nM | > 10000 nM | – | – | – | –
NC[C@@H]1C[C@@]1(C(=O)N1C=CCCC1)c1ccsc1 | 200 nM | 1800 nM | > 10000 nM | – | – | – | –
CCN(CC)C(=O)[C@@]1(c2nc3ccccc3s2)C[C@H]1CN | 2200 nM | 9600 nM | > 10000 nM | – | – | – | –
C=CCN(CCOC)C(=O)[C@@]1(c2ccsc2)C[C@H]1CN | 20 nM | 47 nM | > 10000 nM | 52 mL/min/kg | < 2.6 mL/min/kg | 2.4 ×10⁻⁶ cm/s | –
CCN(CC)C(=O)[C@@]1(c2ccsc2)C[C@H]1CN(C)C | > 10000 nM | > 10000 nM | > 10000 nM | – | – | – | –
CCN(CC)C(=O)[C@@]1(c2ccsc2)C[C@H]1CNC | 3700 nM | – | > 10000 nM | – | – | – | –
NC[C@@H]1C[C@@]1(C(=O)N1CCc2ccccc2C1)c1ccsc1 | 8.3 nM | 320 nM | > 10000 nM | – | – | – | –
C#CCN(C)C(=O)[C@@]1(c2ccsc2)C[C@H]1CN | 110 nM | 34 nM | > 10000 nM | – | – | – | –
CCN(CC)C(=O)[C@@]1(c2ccccc2)C[C@H]1CN [LEVOMILNACIPRAN] | – | – | – | 24 mL/min/kg | – | – | pKa [8]: 9.6; Cmax [17]: 232 ng/mL; Kp at 1 h [18]: 0.42; AUC [19]: 566 ng·h/mL; Kp at 4 h [20]: 0.86; Tmax [21]: 18 min; concentration at 4 h [22]: 55 ng/g; concentration at 1 h [23]: 103 ng/g

The remaining molecules from weak to strong by IC50 [1], led by results:

IC50 [1] | IC50 [2] | IC50 [3] | CLhep predicted [4] | CLhep predicted [5] | Papp [6] | Structure (SMILES) | further results
1500 nM | 3500 nM | > 10000 nM | – | – | – | CCN(CC)C(=O)[C@@]1(c2ccccn2)C[C@H]1CN | –
270 nM | 2000 nM | > 10000 nM | – | – | – | CCN(CC)C(=O)[C@@]1(c2sc(Cl)c(Cl)c2Cl)C[C@H]1CN | –
170 nM | 3100 nM | > 10000 nM | – | – | – | CCN(CC)C(=O)[C@@]1(c2csc3ccccc23)C[C@H]1CN | –
65 nM | 620 nM | 2400 nM | – | – | – | CCN(CC)C(=O)[C@@]1(c2cc3ccccc3s2)C[C@H]1CN | –
64 nM | 47 nM | > 10000 nM | 18 mL/min/kg | < 2.6 mL/min/kg | 3.2 ×10⁻⁶ cm/s | C#CCN(CCOC)C(=O)[C@@]1(c2ccsc2)C[C@H]1CN | –
49 nM | 830 nM | > 10000 nM | 34 mL/min/kg | 7.1 mL/min/kg | 4.7 ×10⁻⁶ cm/s | CCN(CC)C(=O)[C@@]1(c2ccsc2)C[C@H]1CN | –
44 nM | 60 nM | > 10000 nM | 32 mL/min/kg | < 2.6 mL/min/kg | 13.8 ×10⁻⁶ cm/s | C=C(F)CN(C)C(=O)[C@@]1(c2ccsc2)C[C@H]1CN | –
40 nM | 520 nM | > 10000 nM | – | – | – | CCN(CC)C(=O)[C@@]1(c2ccc(Cl)s2)C[C@H]1CN | –
37 nM | – | 6900 nM | 66 mL/min/kg | 10 mL/min/kg | 4.7 ×10⁻⁶ cm/s | NC[C@@H]1C[C@@]1(C(=O)N1Cc2ccccc2C1)c1ccsc1 | –
12 nM | 340 nM | > 10000 nM | 67 mL/min/kg | 13 mL/min/kg | 20 ×10⁻⁶ cm/s | NC[C@@H]1C[C@@]1(C(=O)N1C=COc2ccccc21)c1ccsc1 | –
8.7 nM | 26 nM | > 10000 nM | 42 mL/min/kg | < 2.6 mL/min/kg | 5.3 ×10⁻⁶ cm/s | C=CCN(C(=O)[C@@]1(c2ccsc2)C[C@H]1CN)C1CC1 | –
8.2 nM | 84 nM | > 10000 nM | 42 mL/min/kg | < 2.6 mL/min/kg | 16.4 ×10⁻⁶ cm/s | C#CCN(CC#C)C(=O)[C@@]1(c2ccsc2)C[C@H]1CN | –
3.9 nM | 40 nM | > 10000 nM | 54 mL/min/kg | < 2.6 mL/min/kg | 3.4 ×10⁻⁶ cm/s | C=C(F)CN(CCOC)C(=O)[C@@]1(c2ccsc2)C[C@H]1CN | –
